Laboratory results from ChEMBL document CHEMBL4765340, “Novel potent antiplatelet thrombotic agent derived from biguanide for ischemic stroke” (Eur J Med Chem, 2020).
pIC50: −log10 of the molar value. The source made the active and inactive calls. No cut-off for these calls is given here.

How the values were obtained:
[1] = Inhibition of thrombin-stimulated human platelet aggregation by measuring aggregation at 0.10 mM measured after 3 hrs by scanning electron microscopy (Rvb= 87.2 +/- 4.0%); assay type: functional; design: scale not given: the % may be the effect or the level left; conditions: dose 0.1 mM
[2] = test system: Platelet; assay: Inhibition of thrombin-stimulated human platelet aggregation at 1 mM measured after 3 hrs by scanning electron microscopy (Rvb= 87.2 +/- 4.0%); assay type: functional, tissue-based
[3] = Inhibition of thrombin-stimulated human platelet aggregation measured after 3 hrs by scanning electron microscopy; assay type: functional, tissue-based
[4] = Inhibition of thrombin-stimulated human platelet aggregation by measuring aggregation at 0.50 mM measured after 1 hrs by scanning electron microscopy; assay type: functional; design: scale not given: the % may be the effect or the level left; conditions: dose 0.5 mM
[5] = Inhibition of thrombin-stimulated human platelet aggregation by measuring aggregation at 0.50 mM measured after 4 hrs by scanning electron microscopy; assay type: functional; design: scale not given: the % may be the effect or the level left; conditions: dose 0.5 mM
[6] = test system: Platelet; assay: Cytotoxicity against human platelet assessed as extracellular LDH levels changes at 1 mM incubated for 3 hrs; assay type: cell-based; conditions: 1000 µM
[7] = test system: Platelet; assay: Cytotoxicity against human platelet assessed as extracellular LDH levels changes at 1 mM incubated for 6 hrs; assay type: cell-based; conditions: 1000 µM
[8] = Suppression of P-selectin expression in thrombin-stimulated human platelets by measuring CD62P positive platelets at 0.01 mM after 3 hrs by flow cytometry analysis (reference value: 78.2%); assay type: functional; conditions: Platelet
[9] = Suppression of P-selectin expression in thrombin-stimulated human platelets by measuring CD62P positive platelets at 0.50 mM after 3 hrs by flow cytometry analysis (reference value: 78.2%); assay type: functional; conditions: Platelet, at 0.5 mM
[10] = Suppression of P-selectin expression in thrombin-stimulated human platelets by measuring CD62P positive platelets at 1 mM after 3 hrs by flow cytometry analysis (reference value: 78.2%); assay type: functional; conditions: Platelet
[11] = test system: Mus musculus; assay: Antithrombotic activity in calcein-labelled platelet-mediated ferric chloride-induced arterial injury thrombosis C57BL/6J mouse model assessed as thrombus weight at 50 mg/kg, po administrated twice a day measured upto 7 days (reference value: 3.3 +/- 0.3 mg); assay type: functional; conditions: time day <=7
[12] = test system: Mus musculus; assay: Antithrombotic activity in calcein-labelled platelet-mediated ferric chloride-induced arterial injury thrombosis C57BL/6J mouse model assessed as thrombus weight at 100 mg/kg, po administrated twice a day measured upto 7 days (reference value: 3.3 +/- 0.3 mg); assay type: functional; conditions: time day <=7
[13] = test system: Mus musculus; assay: Antithrombotic activity in calcein-labelled platelet-mediated ferric chloride-induced arterial injury thrombosis C57BL/6J mouse model assessed as thrombus weight at 300 mg/kg, po administrated twice a day measured upto 7 days (reference value: 3.3 +/- 0.3 mg); assay type: functional; conditions: time day <=7
[14] = test system: Mus musculus; assay: Antithrombotic activity in calcein-labelled platelet-mediated ferric chloride-induced arterial injury thrombosis C57BL/6J mouse model assessed as thrombus length at 50 mg/kg, po administrated twice a day measured upto 7 days (reference value: 4.4 +/- 0.4 mm); assay type: functional; conditions: time day <=7
[15] = test system: Mus musculus; assay: Antithrombotic activity in calcein-labelled platelet-mediated ferric chloride-induced arterial injury thrombosis C57BL/6J mouse model assessed as thrombus length at 200 mg/kg, po administrated twice a day measured upto 7 days (reference value: 4.4 +/- 0.4 mm); assay type: functional; conditions: time day <=7
[16] = test system: Mus musculus; assay: Antithrombotic activity in calcein-labelled platelet-mediated ferric chloride-induced arterial injury thrombosis C57BL/6J mouse model assessed as thrombus length at 300 mg/kg, po administrated twice a day measured upto 7 days (reference value: 4.4 +/- 0.4 mm); assay type: functional; conditions: time day <=7
[17] = test system: Platelet; assay: Antiplatelet activity in thrombin-stimulated human platelet assessed as reduction in the clot retraction preincubated at 0.5 mM with fibrinogen for 3 hrs followed by added thrombin measured after 0.5 hrs (reference value: 80.3 =/- 5.5%); assay type: functional; design: scale not given: the % may be the effect or the level left; conditions: time 3.5 hrs
[18] = test system: Mus musculus; assay: (§1) Antithrombotic activity in transient focal cerebral ischemic mouse model occlusion induced 60 mins of the right middle cerebral artery followed by reperfussion 23 hrs assessed as reduction of brain infract volume at 200 mg/kg, po twice daily for 7 days by TTC staining based […] analysis (reference value: 46 +/- 5%); assay type: functional; design: scale not given: the % may be the effect or the level left; conditions: time 7 day
[19] = test system: Mus musculus; assay: as §1, with “neurological deficits” for “brain infract volume”, “analysis” for “analysis (reference value: 46 +/- 5%)”; assay type: functional, organism-based; conditions: time 7.0 day
[20] = Half life in Sprague-Dawley rat at 200 mg/kg, po measured by HPLC-MS/MS analysis; assay type: ADME, organism-based; conditions: in vivo
[21] = AUC (0 to infinity) in Sprague-Dawley rat at 200 mg/kg, po measured by HPLC-MS/MS analysis; assay type: ADME, organism-based; design: time infinity, route oral, dose 200 mg/kg; conditions: in vivo
[22] = Toxicity against C57BL/6J mouse assessed as pancreas morphology at 200 mg/kg twice a day measured after 60 days; assay type: organism-based; conditions: in vivo, 1440 h, time 60 day
[23] = Toxicity against C57BL/6J mouse assessed as body weight at 200 mg/kg twice a day measured after 60 days; assay type: organism-based; conditions: in vivo, 1440 h, time 60 day
[24] = Toxicity in calcein-labelled platelet-mediated ferric chloride-induced arterial injury thrombosis po dosed C57BL/6J mouse model assessed as change in thrombin time treated twice a day measured upto 7 days; assay type: organism-based; conditions: in vivo, 168 h, time <=7 day
[25] = Toxicity in calcein-labelled platelet-mediated ferric chloride-induced arterial injury thrombosis po dosed C57BL/6J mouse model assessed as change in fibrinogen treated twice a day measured upto 7 days; assay type: organism-based; conditions: in vivo, 168 h, time <=7 day
[26] = test system: Mus musculus; assay: Antithrombotic activity in collagen-epinephrine induced pulmonary thromboembolism mouse model assessed as protection rate at 200 mg/kg, ig twice a day for 7 days followed by administered collagen-epinephrine relative to control; assay type: functional; conditions: time 7 day
[27] = test system: Mus musculus; assay: Antithrombotic activity in calcein-labelled platelet-mediated ferric chloride-induced arterial injury thrombosis C57BL/6J mouse model assessed as average time to occlusive thrombosis at 200 mg/kg, po administrated twice a day measured upto 7 days (reference value: 7.9 +/- 0.7 min); assay type: functional; conditions: time day <=7
[28] = test system: Platelet; assay: Inhibition of thrombin-stimulated human platelet aggregation measured after 3 hrs by scanning electron microscopy with 0.01 to 1 U/ml varying concentration of thrombin by lumi-aggregometer; assay type: functional, tissue-based
[29] = Toxicity in calcein-labelled platelet-mediated ferric chloride-induced arterial injury thrombosis po dosed C57BL/6J mouse model assessed as change in coagulation factor V treated twice a day measured upto 7 days; assay type: organism-based; conditions: in vivo, 168 h, time <=7 day
[30] = Toxicity in calcein-labelled platelet-mediated ferric chloride-induced arterial injury thrombosis po dosed C57BL/6J mouse model assessed as change in coagulation factor VII to XII treated twice a day measured upto 7 days; assay type: organism-based; conditions: in vivo, 168 h, time <=7 day
[31] = test system: Mus musculus; assay: as §1, with “activated platelets with red blood cells and loose textured stroke thrombi” for “reduction of brain infract volume”, “analysis” for “analysis (reference value: 46 +/- 5%)”; assay type: functional, organism-based; conditions: time 7.0 day
[32] = test system: Mus musculus; assay: Antithrombotic activity in transient focal cerebral ischemic mouse model occlusion induced 60 mins of the right middle cerebral artery followed by reperfussion 23 hrs assessed as decrease in blood viscosity at 200 mg/kg, po twice daily for 7 days; assay type: functional, organism-based; conditions: time 7.0 day
[33] = Toxicity in C57BL/6J mouse assessed as change in sodium level at 200 mg/kg twice daily for 60 days relative to control; assay type: organism-based; conditions: in vivo, 1440 h, time 60 day
[34] = Toxicity in C57BL/6J mouse assessed as change in potassium level at 200 mg/kg twice daily for 60 days relative to control; assay type: organism-based; conditions: in vivo, 1440 h, time 60 day
[35] = Toxicity in C57BL/6J mouse assessed as change in chloride level at 200 mg/kg twice daily for 60 days relative to control; assay type: organism-based; conditions: in vivo, 1440 h, time 60 day
[36] = Toxicity in C57BL/6J mouse assessed as change in immature platelet fraction at 200 mg/kg twice daily for 60 days relative to control; assay type: organism-based; conditions: in vivo, 1440 h, time 60 day

## CN(C)C(=N)NC(=N)NS(=O)(=O)C(F)(F)F
[1]
  Activity: 44.2%
[2]
  inhibition: inactive
[3]
  pIC50: 3.82
[4]
  Activity: 60%
[5]
  Activity: 19.5%
[6]
  Activity: Non-Toxic
[7]
  Activity: Non-Toxic
[8]
  level, % of control at 10 µM: 72.8%
[9]
  level, % of control at 500 µM: 45.2%
[10]
  level, % of control at 1000 µM: 46.6%
[11]
  Activity: 2.7 mg
[12]
  Activity: 1.1 mg
[13]
  Activity: 0.4 mg
[14]
  Activity: 3.5 mm
[15]
  Activity: 1.5 mm
[16]
  Activity: 1.4 mm
[17]
  Activity: 28.4%
[18]
  Activity: 5%
[19]
  Activity: Active
[20]
  half-life: 4.94 h
[21]
  AUC(0-inf): 201 µg·h/mL
[22]
  Activity: Non-Toxic
[23]
  Activity: Non-Toxic
[24]
  Activity: Non-Toxic
[25]
  Activity: Non-Toxic
[26]
  Activity: 70%
[27]
  Time: 21.2 min
[28]
  inhibition: Active
[29]
  Activity: Non-Toxic
[30]
  Activity: Non-Toxic
[31]
  Activity: Active
[32]
  Activity: Active
[33]
  Activity: Non-Toxic
[34]
  Activity: Non-Toxic
[35]
  Activity: Non-Toxic
[36]
  Activity: Non-Toxic
